In patent US20030162687A1, “Surfactants” (AJINOMOTO CO. INC., priority 2002, published 2003):

Experiments:
[1] = Particle diameter distribution by sieve classification; format: physicochemical
Experimental: Content of the 280 mesh pass particles can generally be measured according to JIS Z8815 “General procedures for sieve analysis test”. For example, the content can be determined by sieving particles through a sieve having a mesh size of 280 (53 μm) with vibration using a vibrator, and measuring weight of particles passed through the sieve. The measurement can be carried out, for example, after vibration for 5 minutes with an amplitude of 2.0 mm, and a sieve according to the JIS standard (JIS Z 8801-1) can be used as the sieve. A specific example of the sieving method is given in the examples of the specification, and accordingly, those skilled in the art can measure a content of 280 mesh pass particles by referring to the aforementioned JIS general procedures and descriptions of the examples of the specification.
In the following example, sieve classification was carried out by vibrating a sieve for 5 minutes at an amplitude of 2.0 mm using a vibrator produced by Rctsch. Powdery samples were prepared in a conventional manner by using a spray dryer with sodium N-lauroyl-L-glutamate, sodium N-myristoyl-L-glutamate, sodium N-palmoyl-L-glutamate, and sodium N-cocoyl glycinate as salts of N-long-chain acyl amino acids. Drying was performed under the following conditions.
From the samples dried by the spray drier, 280 mesh pass cut samples, 200 mesh pass cut samples, and 140 mesh pass cut samples were prepared by using sieves. […] Samples that were not subjected to sieve classification were used as controls.

[2] = Flowability by powder tester Model PT-N, Carr's flowability index method; format: physicochemical
Experimental: As for evaluation of flowability, parameters of angle of repose, degree of compaction, spatula angle, and degree of aggregation were measured by using a powder tester Model PT-N produced by HOSOKAWA MICRON CORP. based on the method for evaluating Carr's flowability index.

[3] = 140 mesh pass cut sample (106 μm)
[4] = 200 mesh pass cut sample (75 μm)
[5] = 280 mesh pass cut sample (53 μm)
[6] = control, not subjected to sieve classification

Compound	Particle diameter distribution 53˜75 μm [1, 3] [%]	Particle diameter distribution 75˜106 μm [1, 3] [%]	Particle diameter distribution 106˜μm [1, 3] [%]	Particle diameter distribution ˜53 μm [1, 3] [%]	Particle diameter distribution 53˜75 μm [1, 4] [%]	Particle diameter distribution 75˜106 μm [1, 4] [%]	Particle diameter distribution 106˜μm [1, 4] [%]	Particle diameter distribution ˜53 μm [1, 4] [%]	Particle diameter distribution 53˜75 μm [1, 5] [%]	Particle diameter distribution 75˜106 μm [1, 5] [%]	Particle diameter distribution 106˜μm [1, 5] [%]	Particle diameter distribution ˜53 μm [1, 5] [%]	Particle diameter distribution 53˜75 μm [1, 6] [%]	Particle diameter distribution 75˜106 μm [1, 6] [%]	Particle diameter distribution 106˜μm [1, 6] [%]	Particle diameter distribution ˜53 μm [1, 6] [%]	Flowability: Angle of repose [2, 3] [°]	Flowability: Degree of aggregation [2, 3] [%]	Flowability: Degree of compaction [2, 3] [%]	Flowability: Spatula angle [2, 3] [°]	further results
CCCCCCCCCCCC(=O)N[C@@H](CCC(=O)[O-])C(=O)[O-].[Na+].[Na+] [Na lauroylglutamate, sodium N-lauroyl-L-glutamate]	0	0	100	0	0	9.6	90.4	0	8.3	8.8	82.9	0	7.9	8.4	79.0	4.7	29.1	34.6	13.7	29.5	Flowability index [2, 3]: 76.0; Flowability index [2, 4]: 77.0; Flowability: Angle of repose [2, 4]: 30.6 °; Flowability: Degree of aggregation [2, 4]: 15.7%; Flowability: Degree of compaction [2, 4]: 12.7%; Flowability: Spatula angle [2, 4]: 31.7 °; Flowability index [2, 5]: 78.0; Flowability: Angle of repose [2, 5]: 28.6 °; Flowability: Degree of aggregation [2, 5]: 12.5%; Flowability: Degree of compaction [2, 5]: 14.0%; Flowability: Spatula angle [2, 5]: 36.7 °; Flowability index [2, 6]: 67.0; Flowability: Angle of repose [2, 6]: 33.0 °; Flowability: Degree of aggregation [2, 6]: 15.1%; Flowability: Degree of compaction [2, 6]: 18.3%; Flowability: Spatula angle [2, 6]: 46.7 °
CCCCCCCCCCCCCC(=O)N[C@@H](CCC(=O)[O-])C(=O)[O-].[Na+].[Na+] [Na myristoylglutamate, sodium N-myristoyl-L-glutamate]	0	0	100	0	0	15.1	84.9	0	6.5	14.1	79.4	0	6.0	13.0	73.3	7.7	30.8	13.5	11.3	34.8	Flowability: Angle of repose [2, 4]: 30.1 °; Flowability: Degree of aggregation [2, 4]: 19.9%; Flowability: Degree of compaction [2, 4]: 11.1%; Flowability: Spatula angle [2, 4]: 37.0 °; Flowability: Angle of repose [2, 5]: 31.1 °; Flowability: Degree of aggregation [2, 5]: 15.9%; Flowability: Degree of compaction [2, 5]: 12.8%; Flowability: Spatula angle [2, 5]: 38.8 °; Flowability: Angle of repose [2, 6]: 26.6 °; Flowability: Degree of aggregation [2, 6]: 12.3%; Flowability: Degree of compaction [2, 6]: 16.5%; Flowability: Spatula angle [2, 6]: 49.3 °
CCCCCCCCCCCCCCCC(=O)N[C@@H](CCC(=O)[O-])C(=O)[O-].[Na+].[Na+] [Na palmoylglutamate, sodium N-palmoyl-L-glutamate]	0	0	100	0	0	14.4	81.3	0	4.8	17.8	77.4	0	4.5	16.9	73.3	5.3	32.0	26.4	10.2	49.2	Flowability: Angle of repose [2, 4]: 37.4 °; Flowability: Degree of aggregation [2, 4]: 20.6%; Flowability: Degree of compaction [2, 4]: 12.4%; Flowability: Spatula angle [2, 4]: 53.4 °; Flowability: Angle of repose [2, 5]: 35.5 °; Flowability: Degree of aggregation [2, 5]: 21.5%; Flowability: Degree of compaction [2, 5]: 12.4%; Flowability: Spatula angle [2, 5]: 52.4 °; Flowability: Angle of repose [2, 6]: 39.3 °; Flowability: Degree of aggregation [2, 6]: 17.6%; Flowability: Degree of compaction [2, 6]: 15.6%; Flowability: Spatula angle [2, 6]: 59.0 °
sodium N-cocoyl glycinate [Na cocoylglycinate]	0	0	100	0	0	9.2	90.8	0	6.5	15.3	78.2	0	4.4	17.1	73.0	5.5	28.6	27.9	15.6	43.4	Flowability: Angle of repose [2, 4]: 31.0 °; Flowability: Degree of aggregation [2, 4]: 28.1%; Flowability: Degree of compaction [2, 4]: 15.1%; Flowability: Spatula angle [2, 4]: 50.0 °; Flowability: Angle of repose [2, 5]: 33.0 °; Flowability: Degree of aggregation [2, 5]: 28.4%; Flowability: Degree of compaction [2, 5]: 14.5%; Flowability: Spatula angle [2, 5]: 56.0 °; Flowability: Angle of repose [2, 6]: 36.7 °; Flowability: Degree of aggregation [2, 6]: 32.8%; Flowability: Degree of compaction [2, 6]: 16.4%; Flowability: Spatula angle [2, 6]: 62.0 °
